Laboratory results as given in US12528832B2, “Crystalline or amorphous form of Bcl-2/Bcl-xL inhibitor compound or its salts” (ASCENTAGE PHARMA (SUZHOU) CO., LTD., priority 2020, dated 2026).
Where a name gives a salt, the structure may show the parent alone.

Assays:
[1] = Stability test of salt form screening (25° C., R.T./75% RH, light; HPLC, XRPD); format: physicochemical
Experimental: Take an appropriate amount of the compound into an 8 mL glass bottle, and then place it at room temperature (25° C., open), high humidity (room temperature/75% RH, open) and light (room temperature, white light: 6980 lux, UV 282 μW/cm2). Take samples for testing on the 5th, 10th, and 30th day (HPLC, XRPD).

[2] = Hygroscopicity test, dynamic water adsorption (DVS); format: physicochemical
Experimental: Take about 10 mg of the Amorphous form XIV sample of the compound of formula I for dynamic water adsorption (DVS) test.

[3] = Stability test of amorphous form XIV (40° C., high humidity 92.5% RH, light; content, related substances); format: physicochemical
Experimental: Pack the amorphous sample with nitrogen, shading, and moisture-proof, and place it under 40° C., high humidity 92.5% RH, light conditions, and take samples at 0 days/5 days/10 days to investigate its content, related substances and crystal forms (light conditions: total illuminance≥1.2×106 Lux·hr, near ultraviolet energy≥200 w·hr/m2).

[4] = Physicochemical stability of crystalline form VI, one week storage (HPLC purity, XRPD form)
[5] = Light, room temperature, 5 Days
[6] = Light, room temperature, 10 Days
[7] = 10 Days, high humidity 92.5% RH

| Total impurities (%) ([1]; 25° C., open, 5 Days) | Total impurities (%) ([1]; 25° C., open, 10 Days) | Total impurities (%) ([1]; 25° C., open, 30 Days) | Total impurities (%) ([1]; Initial, 0 Days) | Total impurities (%) [1, 5] | Total impurities (%) [1, 6] | Total impurities (%) ([1]; R.T./75% RH, open, 5 Days) | Total impurities (%) ([1]; R.T./75% RH, open, 10 Days) | Total impurities (%) ([1]; R.T./75% RH, open, 30 Days) | Compound | also measured |
| --- | --- | --- | --- | --- | --- | --- | --- | --- | --- | --- |
| 0.95% | 0.89% | 0.88% | 0.83% | 1.33% | 1.74% | 1.36% | 1.86% | 4.95% | Cc1c(S(C)(=O)=O)c(-c2cc(F)cc(N3CCN(c4ccc(NS(=O)(=O)c5ccc(N[C@H](CCN6CCC(C(=O)OCCCP(=O)(O)O)CC6)CSc6ccccc6)c(S(=O)(=O)C(F)(F)F)c5)cc4)CC3)c2)c(-c2ccc(Cl)cc2)n1C(C)C [Amorphous form XVI of meglumine salt] | physical and chemical stability (summary statement) [1]: good physical and chemical stability |
| 1.89% | 1.94% | 2.29% | 1.65% | 2.20% | 3.55% | 2.45% | 3.08% | 6.31% | Cc1c(S(C)(=O)=O)c(-c2cc(F)cc(N3CCN(c4ccc(NS(=O)(=O)c5ccc(N[C@H](CCN6CCC(C(=O)OCCCP(=O)(O)O)CC6)CSc6ccccc6)c(S(=O)(=O)C(F)(F)F)c5)cc4)CC3)c2)c(-c2ccc(Cl)cc2)n1C(C)C [Amorphous form XIII of sodium salt] |  |
| 0.79% | 0.89% | 1.23% | 0.73% | 1.33% | 1.94% | 1.59% | 2.59% | 7.00% | Cc1c(S(C)(=O)=O)c(-c2cc(F)cc(N3CCN(c4ccc(NS(=O)(=O)c5ccc(N[C@H](CCN6CCC(C(=O)OCCCP(=O)(O)O)CC6)CSc6ccccc6)c(S(=O)(=O)C(F)(F)F)c5)cc4)CC3)c2)c(-c2ccc(Cl)cc2)n1C(C)C [Amorphous form XV of maleate salt] |  |
| 1.63% | 1.58% | 1.86% | 1.40% | 2.09% | 2.69% | 2.25% | 2.98% | 6.11% | Cc1c(S(C)(=O)=O)c(-c2cc(F)cc(N3CCN(c4ccc(NS(=O)(=O)c5ccc(N[C@H](CCN6CCC(C(=O)OCCCP(=O)(O)O)CC6)CSc6ccccc6)c(S(=O)(=O)C(F)(F)F)c5)cc4)CC3)c2)c(-c2ccc(Cl)cc2)n1C(C)C [Amorphous form XII of potassium salt] |  |
|  |  |  |  |  |  |  |  |  | Cc1c(S(C)(=O)=O)c(-c2cc(F)cc(N3CCN(c4ccc(NS(=O)(=O)c5ccc(N[C@H](CCN6CCC(C(=O)OCCCP(=O)(O)O)CC6)CSc6ccccc6)c(S(=O)(=O)C(F)(F)F)c5)cc4)CC3)c2)c(-c2ccc(Cl)cc2)n1C(C)C [Amorphous XIV] | Hygroscopicity classification ([2]; DVS, 80% RH): Hygroscopic; Moisture gain (80% RH) ([2]; DVS, 80% RH): 4.83%; water absorption during storage ([2]; conclusion from DVS): easily absorb water; physical and chemical stability (summary statement) [3]: good physical and chemical stability; Content(%) ([3]; 0 Days): 99.5%; Total impurities (%) ([3]; 0 Days): 0.39%; Content(%) ([3]; 5 Days, 40° C.): 100.3%; Total impurities (%) ([3]; 5 Days, 40° C.): 0.59%; Content(%) ([3]; 5 Days, high humidity 92.5% RH): 100.7%; Total impurities (%) ([3]; 5 Days, high humidity 92.5% RH): 0.37%; Content(%) ([3]; 5 Days, light): 100.4%; Total impurities (%) ([3]; 5 Days, light): 0.43%; Content(%) ([3]; 10 Days, 40° C.): 99.7%; Total impurities (%) ([3]; 10 Days, 40° C.): 0.64%; Content(%) [3, 7]: 99.7%; Total impurities (%) [3, 7]: 0.39%; Content(%) ([3]; 10 Days, light): 100.1%; Total impurities (%) ([3]; 10 Days, light): 0.41%; stability under high humidity and light conditions ([3]; packed with nitrogen, shading, moisture-proof): stable; stability to heat ([3]; packed with nitrogen, shading, moisture-proof, 40° C.): sensitive to heat |
|  |  |  |  |  |  |  |  |  | Cc1c(S(C)(=O)=O)c(-c2cc(F)cc(N3CCN(c4ccc(NS(=O)(=O)c5ccc(N[C@H](CCN6CCC(C(=O)OCCCP(=O)(O)O)CC6)CSc6ccccc6)c(S(=O)(=O)C(F)(F)F)c5)cc4)CC3)c2)c(-c2ccc(Cl)cc2)n1C(C)C [Crystal form VI] | physical and chemical stability (summary statement) [4]: good physical and chemical stability; change of purity and crystal form ([4]; 25° C./60% RH and 40° C./75% RH for one week): did not change significantly; HPLC purity (Peak area %) ([4]; 25° C./60% RH, one week): 99.01 Peak area %; Solid crystal form ([4]; 25° C./60% RH, one week): Crystal form VI; HPLC purity (Peak area %) ([4]; 40° C./75% RH, one week): 99.06 Peak area %; Solid crystal form ([4]; 40° C./75% RH, one week): Crystal form VI; HPLC purity (Peak area %) ([4]; Initial sample): 99.02 Peak area %; Solid crystal form ([4]; Initial sample): Crystal form VI |
